Results taken from PubChem BioAssay (NCI).
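Dose response: 5 concentrations. Exposure: 48 h. Format: 96-well plates. Endpoint: linear interpolation; highest concentration if not reached. TGI: concentration producing complete growth inhibition.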

Experiments:
Test in all cases: growth of human tumour cells (NCI), 48 h
786-0 renal = tested on: 786-0 renal
A498 renal = tested on: A498 renal
A549 NSCLC = tested on: A549 NSCLC
ACHN renal = tested on: ACHN renal
BT-549 breast = tested on: BT-549 breast
CAKI-1 renal = tested on: CAKI-1 renal
CCRF-CEM leukemia = tested on: CCRF-CEM leukemia
COLO 205 colon = tested on: COLO 205 colon
DU-145 prostate = tested on: DU-145 prostate
EKVX NSCLC = tested on: EKVX NSCLC
HCC-2998 colon = tested on: HCC-2998 colon
HCT-116 colon = tested on: HCT-116 colon
HCT-15 colon = tested on: HCT-15 colon
HL-60(TB) leukemia = tested on: HL-60(TB) leukemia
HOP-62 NSCLC = tested on: HOP-62 NSCLC
HOP-92 NSCLC = tested on: HOP-92 NSCLC
HS 578T breast = tested on: HS 578T breast
HT29 colon = tested on: HT29 colon
IGROV1 ovarian = tested on: IGROV1 ovarian
K-562 leukemia = tested on: K-562 leukemia
KM12 colon = tested on: KM12 colon
LOX IMVI melanoma = tested on: LOX IMVI melanoma
M14 melanoma = tested on: M14 melanoma
MALME-3M melanoma = tested on: MALME-3M melanoma
MCF7 breast = tested on: MCF7 breast
MDA-MB-231 breast = tested on: MDA-MB-231 breast
MDA-MB-435 = tested on: MDA-MB-435
MDA-N = tested on: MDA-N
MOLT-4 leukemia = tested on: MOLT-4 leukemia
NCI-H226 lung = tested on: NCI-H226 lung
NCI-H23 lung = tested on: NCI-H23 lung
NCI-H460 lung = tested on: NCI-H460 lung
NCI-H522 lung = tested on: NCI-H522 lung
NCI/ADR-RES ovarian = tested on: NCI/ADR-RES ovarian
OVCAR-3 ovarian = tested on: OVCAR-3 ovarian
OVCAR-4 ovarian = tested on: OVCAR-4 ovarian
OVCAR-5 ovarian = tested on: OVCAR-5 ovarian
OVCAR-8 ovarian = tested on: OVCAR-8 ovarian
PC-3 prostate = tested on: PC-3 prostate
RPMI-8226 leukemia = tested on: RPMI-8226 leukemia
RXF 393 renal = tested on: RXF 393 renal
SF-268 CNS = tested on: SF-268 CNS
SF-295 CNS = tested on: SF-295 CNS
SF-539 CNS = tested on: SF-539 CNS
SK-MEL-2 melanoma = tested on: SK-MEL-2 melanoma
SK-MEL-28 melanoma = tested on: SK-MEL-28 melanoma
SK-MEL-5 melanoma = tested on: SK-MEL-5 melanoma
SK-OV-3 ovarian = tested on: SK-OV-3 ovarian
SN12C renal = tested on: SN12C renal
SNB-19 CNS = tested on: SNB-19 CNS
SNB-75 CNS = tested on: SNB-75 CNS
SR leukemia = tested on: SR leukemia
SW-620 colon = tested on: SW-620 colon
T-47D breast = tested on: T-47D breast
TK-10 renal = tested on: TK-10 renal
U251 CNS = tested on: U251 CNS
UACC-257 melanoma = tested on: UACC-257 melanoma
UACC-62 melanoma = tested on: UACC-62 melanoma
UO-31 renal = tested on: UO-31 renal

SMILES: CC(C)OC(=O)c1ccc(CCc2cc(O)c(Br)cc2O)cc1
- TGI (786-0 renal): 25.4 µM
- TGI (A498 renal): 41.8 µM
- TGI (A549 NSCLC): 44.8 µM
- TGI (ACHN renal): 31.9 µM
- TGI (BT-549 breast): 30 µM
- TGI (CAKI-1 renal): 25 µM
- TGI (CCRF-CEM leukemia): 14.3 µM
- TGI (COLO 205 colon): 28.7 µM
- TGI (DU-145 prostate): 28.6 µM
- TGI (EKVX NSCLC): 29.4 µM
- TGI (HCC-2998 colon): 29.6 µM
- TGI (HCT-116 colon): 25.3 µM
- TGI (HCT-15 colon): 14 µM
- TGI (HL-60(TB) leukemia): 38.9 µM
- TGI (HOP-62 NSCLC): 24.7 µM
- TGI (HOP-92 NSCLC): 35.2 µM
- TGI (HS 578T breast): 42.1 µM
- TGI (HT29 colon): 37.4 µM
- TGI (IGROV1 ovarian): 23.1 µM
- TGI (K-562 leukemia): > 58.9 µM
- TGI (KM12 colon): 18.1 µM
- TGI (LOX IMVI melanoma): 20.8 µM
- TGI (M14 melanoma): 29.9 µM
- TGI (MALME-3M melanoma): 31.1 µM
- TGI (MCF7 breast): 29.4 µM
- TGI (MDA-MB-231 breast): 26.7 µM
- TGI (MDA-MB-435): 20.8 µM
- TGI (MDA-N): 24 µM
- TGI (MOLT-4 leukemia): 52.1 µM
- TGI (NCI-H226 lung): 39.8 µM
- TGI (NCI-H23 lung): 22.8 µM
- TGI (NCI-H460 lung): 34.5 µM
- TGI (NCI-H522 lung): 23.8 µM
- TGI (NCI/ADR-RES ovarian): 25.5 µM
- TGI (OVCAR-3 ovarian): 19.5 µM
- TGI (OVCAR-4 ovarian): 5.54 µM
- TGI (OVCAR-5 ovarian): 31.8 µM
- TGI (OVCAR-8 ovarian): 29.5 µM
- TGI (PC-3 prostate): 19.2 µM
- TGI (RPMI-8226 leukemia): 8.18 µM
- TGI (RXF 393 renal): 28.3 µM
- TGI (SF-268 CNS): 25.6 µM
- TGI (SF-295 CNS): 32.3 µM
- TGI (SF-539 CNS): 15.7 µM
- TGI (SK-MEL-2 melanoma): 26.7 µM
- TGI (SK-MEL-28 melanoma): 26.9 µM
- TGI (SK-MEL-5 melanoma): 28.3 µM
- TGI (SK-OV-3 ovarian): 35.6 µM
- TGI (SN12C renal): 28.9 µM
- TGI (SNB-19 CNS): 27.9 µM
- TGI (SNB-75 CNS): 46.5 µM
- TGI (SR leukemia): 64.9 µM
- TGI (SW-620 colon): 22 µM
- TGI (T-47D breast): 53.2 µM
- TGI (TK-10 renal): 30.6 µM
- TGI (U251 CNS): 17.5 µM
- TGI (UACC-257 melanoma): 26.4 µM
- TGI (UACC-62 melanoma): 34.4 µM
- TGI (UO-31 renal): 10.2 µM
